Converted amounts (≈) assume the structure as drawn. Where two headings read alike, the source gives them in different places.
Tests used:
[1] = tested on: lung MDSCs and macrophages; test: Flow cytometry of MDSCs and macrophages in lung tissue of BLM mice; assay type: in vivo, C57BL/6 mice; conditions: 30 mg·kg^−1 i.p.
Protocol: Male C57BL/6 mice (8‐10 weeks old) were purchased from HFK Bioscience Co. Ltd. All animal experiments were permitted by the Institutional Animal Care and Treatment Committee of Sichuan University in China (New Permit Number: 20190524003). Lung fibrosis was induced using BLM treatment (2 mg·kg^−1). All C57BL/6 mice were divided into five groups (n = 10): a BLM + Nintedanib group (Nintedanib, 30 mg·kg^−1), a BLM + YTH‐60 group (YTH‐60, 15 mg·kg^−1 and 30 mg·kg^−1), a control group (Sham), and a bleomycin group (Vehicle). At the beginning, the mice were anaesthetized using 10% chloral hydrate, dissolved BLM with saline and administered intratracheally. To evaluate the preventive effect, the next day after BLM challenge, YTH‐60 and Nintedanib were administered intraperitoneally daily for 13 days (fibroproliferation) to the mice. All mice were sacrificed 24 hours after the last drug injection, the lungs and other organs were taken for the subsequent analysis. To test the therapeutic effect, after the 7th day of BLM treatment, mice were injected intraperitoneally with YTH‐60, Nintedanib and vehicle daily for 7 consecutive days (fibroproliferation).
We analysed the percentage of MDSCs and macrophages by Flow cytometry (FCM). ^22 Use scissors to cut approximately 30 mg of mouse lung tissues into small pieces and use 5 mL of collagenase‐IV with a concentration of 1 mg·mL^−1, digested at 37°C for at least 1 hour. Centrifuge at 400 g for 5 minutes and discard the supernatant. Then, add another 5 mL PBS to resuspend, after precipitation, taken the supernatant and mixed with the corresponding fluorochromium binding antibody, incubate for 30 minutes in the dark at 4°C (MDSCs with PE^−CD11b^−, FITC^−Gr1^− conjugated dual labelling and macrophages with PE^−F4/80^−, FITC^−CD11b^− conjugated dual labelling). The data were acquired with a FACS Canton II NovoCyte (ACEA).

[2] = set-up: method as in PMID 25474320; conditions: 50 mg·kg^−1 oral administration; cited from earlier work
[3] = Determination of thermodynamic solubility; assay type: physicochemical; conditions: thermodynamic from solid, double testing
Protocol: Weigh about 1 mg of the test compound into 1.5 mL centrifuge tube and add 0.5 mL various solvents, sonicating for 5 minutes (if the compound is completely dissolved, then added again test compound until a little solid remains). Take the supernatant after centrifugation, diluting to a suitable concentration using and measuring absorbance values by UV spectrophotometer. Weigh 10 mg compound accurately of the test compound into 1.5 mL centrifuge tube and add 1.2 mL methanol solution to prepare 8.3 mg·mL^−1 mother solution. Take the above described mother liquor to prepare the solution in concentrations of 8.3, 4.2, 2.1, 1.0, 0.52, 0.26 mg·mL^−1 then measure absorbance value. With concentration c (mg·mL^−1) as the abscissa, absorbance A as the ordinate, mapping and fitting line to get the standard curve (The correlation coefficient should be greater than 0.998). Calculate solubility according to the standard curve of the linear equation.

For COC(=O)c1ccc2c(c1)NC(=O)/C2=C(\Nc1ccc(N(C)C(=O)CN2CCN(C)CC2)cc1)c1ccccc1 [Nintedanib, reference compound], the “percentage of CD11b^+F4/80^+ cells (macrophages) in lung” value ([1]; day 14, BLM group 19.9%, sham 9.9%) is given as 13.89%, the “percentage of CD11b^+Gr1^+ cells (MDSCs) in lung” value ([1]; day 14, BLM group 20.5%, sham 5.14%) is given as 10.46% and the mean bioavailability [2] is given as 11.9%. For the same compound, the solubility at 5 min ([3]; organic solvent or mixture, Acetone, read-out: Solubility, Acetone) was 9830 ± 420 µg/mL (≈ 18.2 mM), the solubility at 5 min ([3]; organic solvent or mixture, Acetonitrile, read-out: Solubility, Acetonitrile) was 3520 ± 64 µg/mL (≈ 6.53 mM) and the solubility at 5 min ([3]; organic solvent or mixture, Ethyl acetate, read-out: Solubility, Ethyl acetate) was 9750 ± 350 µg/mL (≈ 18.1 mM). For the same compound, the solubility at 5 min ([3]; organic solvent or mixture, Ethyl alcohol, read-out: Solubility, Ethyl alcohol) was 12500 ± 2200 µg/mL (≈ 23.1 mM), the solubility at 5 min ([3]; saline or isotonic, Normal saline, read-out: Solubility, Normal saline) was 1930 ± 180 µg/mL (≈ 3.58 mM) and the solubility at 5 min ([3]; Water, read-out: Solubility, Water) was 280 ± 15 µg/mL (≈ 0.519 mM).
